From patent US20240158412A1 (Faxian Therapeutics, LLC, priority 2021, published 2024) come the findings set out here.
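Note: fluorescence intensity readout of USP7 enzymatic activity, reaction incubated 90 min at room temperature.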

USP7, sequence (Q93009 whole entry): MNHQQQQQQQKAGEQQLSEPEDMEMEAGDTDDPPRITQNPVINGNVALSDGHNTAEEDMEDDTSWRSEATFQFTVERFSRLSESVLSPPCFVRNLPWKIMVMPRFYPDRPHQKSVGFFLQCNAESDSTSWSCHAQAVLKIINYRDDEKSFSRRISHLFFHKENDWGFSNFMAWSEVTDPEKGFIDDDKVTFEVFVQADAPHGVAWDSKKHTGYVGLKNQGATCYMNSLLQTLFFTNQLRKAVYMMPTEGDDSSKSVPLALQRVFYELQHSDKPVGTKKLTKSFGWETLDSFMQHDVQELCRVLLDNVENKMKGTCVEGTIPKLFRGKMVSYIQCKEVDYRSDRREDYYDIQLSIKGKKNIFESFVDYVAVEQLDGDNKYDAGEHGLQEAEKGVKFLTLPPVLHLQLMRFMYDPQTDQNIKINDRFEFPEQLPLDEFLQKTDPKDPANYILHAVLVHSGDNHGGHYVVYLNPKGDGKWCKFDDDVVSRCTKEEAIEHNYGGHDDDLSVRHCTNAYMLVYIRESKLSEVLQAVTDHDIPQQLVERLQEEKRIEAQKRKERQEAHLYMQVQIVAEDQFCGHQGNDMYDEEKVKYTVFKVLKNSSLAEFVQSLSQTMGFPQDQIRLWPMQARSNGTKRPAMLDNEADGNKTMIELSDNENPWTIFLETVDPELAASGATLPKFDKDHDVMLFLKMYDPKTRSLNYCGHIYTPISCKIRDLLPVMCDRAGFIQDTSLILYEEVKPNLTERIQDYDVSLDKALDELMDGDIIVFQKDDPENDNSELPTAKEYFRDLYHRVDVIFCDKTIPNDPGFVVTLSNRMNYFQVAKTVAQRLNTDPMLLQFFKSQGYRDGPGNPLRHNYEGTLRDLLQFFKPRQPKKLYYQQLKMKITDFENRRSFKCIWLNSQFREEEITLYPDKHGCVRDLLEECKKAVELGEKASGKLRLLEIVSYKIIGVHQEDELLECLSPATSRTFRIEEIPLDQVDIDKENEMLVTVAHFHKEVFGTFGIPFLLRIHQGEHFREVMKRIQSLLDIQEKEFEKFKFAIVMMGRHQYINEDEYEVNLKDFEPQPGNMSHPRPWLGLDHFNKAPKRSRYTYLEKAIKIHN

The assay addresses USP7 (Homo sapiens, UniProt Q93009). As to the kind of experiment: biochemical.
`Cc1cnn(Cc2cc3nccc(-c4cc(Cl)cc5c4N([C@@H]4CNC6(CCC6)C4)C[C@H]4C[C@@H]54)c3s2)c(=O)c1` [Example 166, 2-((7-((1aS,7bR)-6-chloro-3-((S)-5-azaspiro[3.4]octan-7-yl)-1a,2,3,7b-tetrahydro-1H-cyclopropa[c]quinolin-4-yl)thieno[3,2-b]pyridin-2-yl)methyl)-5-methylpyridazin-3(2H)-one] showed an IC50 of less than 0.01 µM. Next, `O=c1ccn(C[C@@H](O)C(F)(F)F)c(=O)n1Cc1cc2nccc(-c3cc(Cl)cc4c3N([C@H]3CCNC3)CCC4)c2s1` [Example 65, 3-((7-(6-chloro-1-((S)-pyrrolidin-3-yl)-1,2,3,4-tetrahydroquinolin-8-yl)thieno[3,2-b]pyridin-2-yl)methyl)-1-((R)-3,3,3-trifluoro-2-hydroxypropyl)pyrimidine-2,4(1H,3H)-dione]: less than 0.01 µM; `CC1(CN2CC(=O)N(Cc3cc4nccc(-c5cc(Cl)cc6c5N(C5CNC5)CCC6)c4s3)C(=O)C2)CC1` [Example 29, 1-((7-(1-(azetidin-3-yl)-6-chloro-1,2,3,4-tetrahydroquinolin-8-yl)thieno[3,2-b]pyridin-2-yl)methyl)-4-((1-methylcyclopropyl)methyl)piperazine-2,6-dione]: 0.01 to 0.1 µM.

`O=C1CCC(=O)N1Cc1cc2nccc(-c3cc(Cl)cc4c3N([C@@H]3CN(C[C@@H](O)C(F)(F)F)C5(CCC5)C3)CCC4)c2s1` (single isomer, unassigned) [Example 143b] had a 50% inhibitory concentration (IC50) of 0.101 to 1 µM. Take `COCCn1ccc(=O)n(Cc2cc3nccc(-c4cc(Cl)cc5c4N(C4CNC4)CCC5)c3s2)c1=O` [Example 30, 3-[[7-[1-(azetidin-3-yl)-6-chloro-3,4-dihydro-2H-quinolin-8-yl]thieno[3,2-b]pyridin-2-yl]methyl]-1-(2-methoxyethyl)pyrimidine-2,4-dione]: the half-maximal inhibitory concentration (IC50) is less than 0.01 µM. To `CO[C@H]1C[C@@H](N2CC[C@H](N3CCCc4cc(C#N)cc(-c5ccnc6cc(Cn7c(=O)ccn(CC(F)(F)F)c7=O)sc56)c43)C2)C1` [Example 85, 8-(2-((2,6-dioxo-3-(2,2,2-trifluoroethyl)-2,3-dihydropyrimidin-1(6H)-yl)methyl)thieno[3,2-b]pyridin-7-yl)-1-((S)-1-((1s,3R)-3-methoxycyclobutyl)pyrrolidin-3-yl)-1,2,3,4-tetrahydroquinoline-6-carbonitrile] belongs 0.01 to 0.1 µM; to `O=C1CCC(=O)N1Cc1cc2nccc(-c3cc(Cl)cc4c3N([C@@H]3CNC5(CCC5)C3)C[C@@H]3C[C@H]43)c2s1` [Example 165a, 1-((7-((1aR,7bS)-6-chloro-3-((S)-5-azaspiro[3.4]octan-7-yl)-1a,2,3,7b-tetrahydro-1H-cyclopropa[c]quinolin-4-yl)thieno[3,2-b]pyridin-2-yl)methyl)pyrrolidine-2,5-dione], 0.01 to 0.1 µM; to `O=C1C2CC2C(=O)N1Cc1cc2nccc(-c3cc(Cl)cc4c3N([C@H]3CNC(CO)(CO)C3)CCO4)c2s1` (single isomer, unassigned) [Example 212a], less than 0.01 µM. To `CC1(C)C2C(=O)N(Cc3cc4nccc(-c5cc(Cl)cc6c5N([C@@H]5CNC7(CCC7)C5)CCC6)c4s3)C(=O)C21` (stereo partly drawn) [Example 147, 3-((7-(6-chloro-1-((S)-5-azaspiro[3.4]octan-7-yl)-1,2,3,4-tetrahydroquinolin-8-yl)thieno[3,2-b]pyridin-2-yl)methyl)-6,6-dimethyl-3-azabicyclo[3.1.0]hexane-2,4-dione] belongs 0.01 to 0.1 µM; to `CC1(c2cnn(Cc3cc4nccc(-c5cc(C#N)cc6c5N([C@@H]5CN[C@@H](CO)C5)C[C@H]5C[C@@H]65)c4s3)c(=O)c2)CC1` (single isomer, unassigned) [Example 195a], less than 0.01 µM. Compound `O=c1ccn(C[C@H](O)C(F)(F)F)c(=O)n1Cc1cc2nccc(-c3cc(Cl)cc4c3N([C@H]3CCNC3)CCC4)c2s1` [Example 64] registered an IC50 of less than 0.01 µM. In the case of `N#Cc1cc2c(c(-c3ccnc4cc(CN5C(=O)CCC5=O)sc34)c1)N([C@H]1CCNC1)CCC2` [Example 82, (S)-8-(2-((2,5-dioxopyrrolidin-1-yl)methyl)thieno[3,2-b]pyridin-7-yl)-1-(pyrrolidin-3-yl)-1,2,3,4-tetrahydroquinoline-6-carbonitrile], the IC50 was less than 0.01 µM. With `C[C@]1(CO)C[C@H](N2CCOc3cc(C#N)cc(-c4ccnc5cc(Cn6ncc(C7(C(F)(F)F)CC7)cc6=O)sc45)c32)CN1` [Example 222, 4-[(3S,5R)-5-(hydroxymethyl)-5-methyl-pyrrolidin-3-yl]-5-[2-[[6-oxo-4-[1-(trifluoromethyl)cyclopropyl]pyridazin-1-yl]methyl]thieno[3,2-b]pyridin-7-yl]-2,3-dihydro-1,4-benzoxazine-7-carbonitrile], the IC50 is less than 0.01 µM. To `N#Cc1cc(-c2ccnc3cc(Cn4ncc(C5(C(F)(F)F)CC5)cc4=O)sc23)c2c(c1)[C@@H]1C[C@@H]1CN2[C@@H]1CN[C@@H](CO)C1` [Example 194a, (1aS,7bR)-3-((3S,5R)-5-(hydroxymethyl)pyrrolidin-3-yl)-4-(2-((6-oxo-4-(1-(trifluoromethyl)cyclopropyl)pyridazin-1(6H)-yl)methyl)thieno[3,2-b]pyridin-7-yl)-1a,2,3,7b-tetrahydro-1H-cyclopropa[c]quinoline-6-carbonitrile] belongs less than 0.01 µM; to `CC(C)(C)c1cnn(Cc2cc3nccc(-c4cc(Cl)cc5c4N(C4CNC(CO)(CO)C4)CCO5)c3s2)c(=O)c1` (stereo in doubt) [Example 213b, (S)-2-((7-(4-(5,5-bis(hydroxymethyl)pyrrolidin-3-yl)-7-chloro-3,4-dihydro-2H-benzo[b][1,4]oxazin-5-yl)thieno[3,2-b]pyridin-2-yl)methyl)-5-(tert-butyl)pyridazin-3(2H)-one], less than 0.01 µM; to `O=c1ccn(CC(F)(F)F)c(=O)n1Cc1cc2ncnc(-c3cc(Cl)cc4c3N([C@@H]3CCNC3)CCC4)c2s1` (single isomer, unassigned) [Example 90], less than 0.01 µM. Next, `O=C1CCC(=O)N1Cc1sc2c(-c3cc(Cl)cc4c3N(C3CCNC3)CCC4)ccnc2c1F` (single isomer, unassigned) [Example 108a]: less than 0.01 µM; `N#Cc1cc2c(c(-c3ccnc4cc(CN5C(=O)C6CC6C5=O)sc34)c1)N([C@@H]1CN[C@@H](CO)C1)CCO2` (stereo partly drawn) [Example 215, 5-(2-((2,4-dioxo-3-azabicyclo[3.1.0]hexan-3-yl)methyl)thieno[3,2-b]pyridin-7-yl)-4-((3S,5R)-5-(hydroxymethyl)pyrrolidin-3-yl)-3,4-dihydro-2H-benzo[b][1,4]oxazine-7-carbonitrile]: less than 0.01 µM. To `O=C1C2CC2C(=O)N1Cc1cc2nccc(-c3cc(Cl)cc4c3N([C@@H]3CN[C@@H](CO)C3)CCC4)c2s1` (stereo partly drawn) [Example 185, 3-((7-(6-chloro-1-((3S,5R)-5-(hydroxymethyl)pyrrolidin-3-yl)-1,2,3,4-tetrahydroquinolin-8-yl)thieno[3,2-b]pyridin-2-yl)methyl)-3-azabicyclo[3.1.0]hexane-2,4-dione] belongs less than 0.01 µM; to `O=C1CCC(=O)N1Cc1cc2nccc(-c3cc(Cl)cc4c3N([C@@H]3CN(CCF)C5(CCC5)C3)CCC4)c2s1` [Example 142, (S)-1-((7-(6-chloro-1-(5-(2-fluoroethyl)-5-azaspiro[3.4]octan-7-yl)-1,2,3,4-tetrahydroquinolin-8-yl)thieno[3,2-b]pyridin-2-yl)methyl)pyrrolidine-2,5-dione], less than 0.01 µM. Regarding `CC(C)(C)c1cnn(Cc2cc3nccc(-c4cc(C#N)cc5c4N([C@@H]4CN[C@@H](CO)C4)CCO5)c3s2)c(=O)c1` [Example 217, 5-(2-((4-(tert-butyl)-6-oxopyridazin-1(6H)-yl)methyl)thieno[3,2-b]pyridin-7-yl)-4-((3S,5R)-5-(hydroxymethyl)pyrrolidin-3-yl)-3,4-dihydro-2H-benzo[b][1,4]oxazine-7-carbonitrile], the IC50 is less than 0.01 µM.

Turning to `C[C@H](c1cc2nccc(-c3cc(C#N)cc4c3N([C@H]3CCNC3)CCC4)c2s1)N1C(=O)CCC1=O` (single isomer, unassigned) [Example 112a], the IC50 fell in the range of 0.01 to 0.1 µM. Next, `Cc1cnn(Cc2cc3nccc(-c4cc(Cl)cc5c4N([C@@H]4CNC6(CCC6)C4)CCC5)c3s2)c(=O)c1` [Example 153, (S)-2-((7-(6-chloro-1-(5-azaspiro[3.4]octan-7-yl)-1,2,3,4-tetrahydroquinolin-8-yl)thieno[3,2-b]pyridin-2-yl)methyl)-5-methylpyridazin-3(2H)-one]: less than 0.01 µM; `CC(C)(C)c1cnn(Cc2cc3nccc(-c4cc(Cl)cc5c4N(C4CNC(CO)(CO)C4)CCO5)c3s2)c(=O)c1` (stereo in doubt) [Example 213a, (R)-2-((7-(4-(5,5-bis(hydroxymethyl)pyrrolidin-3-yl)-7-chloro-3,4-dihydro-2H-benzo[b][1,4]oxazin-5-yl)thieno[3,2-b]pyridin-2-yl)methyl)-5-(tert-butyl)pyridazin-3(2H)-one]: 0.01 to 0.1 µM; `N#Cc1cc2c(c(-c3ccnc4cc(Cn5c(=O)ccn(CC(F)(F)F)c5=O)sc34)c1)N([C@H]1CCNC1)CCC2` [Example 83, (S)-8-(2-((2,6-dioxo-3-(2,2,2-trifluoroethyl)-2,3-dihydropyrimidin-1(6H)-yl)methyl)thieno[3,2-b]pyridin-7-yl)-1-(pyrrolidin-3-yl)-1,2,3,4-tetrahydroquinoline-6-carbonitrile]: less than 0.01 µM. `CCn1c(N(C)C)cc(=O)n(Cc2cc3nccc(-c4cc(C#N)cc5c4N([C@H]4CN[C@](C)(CO)C4)CCO5)c3s2)c1=O` (stereo in doubt) [Example 219, 5-(2-((4-(dimethylamino)-3-ethyl-2,6-dioxo-2,3-dihydropyrimidin-1(6H)-yl)methyl)thieno[3,2-b]pyridin-7-yl)-4-((3R,5S)-5-(hydroxymethyl)-5-methylpyrrolidin-3-yl)-3,4-dihydro-2H-benzo[b][1,4]oxazine-7-carbonitrile] showed an IC50 of less than 0.01 µM. To `CC(C)c1cnn(Cc2cc3nccc(-c4cc(C#N)cc5c4N([C@@H]4CNC(C)(C)C4)CCC5)c3s2)c(=O)c1` [Example 129, (S)-1-(5,5-dimethylpyrrolidin-3-yl)-8-(2-((4-isopropyl-6-oxopyridazin-1(6H)-yl)methyl)thieno[3,2-b]pyridin-7-yl)-1,2,3,4-tetrahydroquinoline-6-carbonitrile] belongs less than 0.01 µM.

One may read the IC50 as the midpoint of a concentration-inhibition curve. Low values mean greater potency, high ones weaker potency.
